Source: US20100010087A1, “Methods for Inducing Stem Cell Migration and Specialization with EC-18” (priority 2008, published 2010)

What was measured:
SDF-1 (Cxcl12) mRNA = test: SDF-1 mRNA expression in lung and liver of mice after CLP (RT-PCR); format: in vivo; details: 50 mg/kg
Protocol: (§1) Specifically, donor transgenic GFP (C57BL/6) mice are given 5-FU (150 mg/kg) to kill mature cells. Bone marrow is harvested. C57BL/6 congenic recipient mice are exposed to lethal doses of whole-body radiation (10Gy Cesium-137 at 1.0 Gy/min) and then undergo bone marrow transplant. Engraftment of GFP-BMSC is confirmed after five weeks in select sacrificed mice. Surviving mice are GFP-BMSC chimeras available for investigation. These GFP-BMSC mice then undergo CLP. Specifically, the mice are anesthetized and undergo laparotomy. The sham group undergo laparotomy only. The non-sham group has the cecum ligated and punctured (size and number of punctures may vary depending on the desired severity of injury). Mice are sacrificed at six, twelve and 24 hours. […] Serum is analyzed for levels of cytokines (TNF-α, IL-1, IL-2, IL-4, IL-6, IL-10, and IFN-γ) and chemokines (SDF-1 and SCF). […]
(§2) Additionally, four groups of 20 mice: sham group underwent celiotomy but not CLP; control group underwent CLP and administration of PBS; simultaneous treatment group (STG) had administration of 50 mg/kg MADG PO. […] Serum and tissue levels of pro- and anti-inflammatory cytokines were measured. Serum levels of chemokines stromal cell-derived factor (SDF-1) and stem cell factor (SCF) were measured to ascertain if effects of MADG involve stimulation of bone marrow stromal and stem cells. […]

SCF (Kit) mRNA = test: SCF mRNA expression in lung and liver of mice after CLP (RT-PCR); format: in vivo; details: 50 mg/kg
Protocol: as §1, §2

CCCCC/C=C\C/C=C\CCCCCCCC(=O)OC(COC(C)=O)COC(=O)CCCCCCCCCCCCCCC (racemic) [EC-18, 1-palmitoyl-2-linoleoyl-3-acetyl-rac-glycerol]
increased early expression: Cxcl2 (SDF-1) mRNA expression in the liver (SDF-1 (Cxcl12) mRNA; liver, compared to controls (FIG. 5A)) | Cxcl2 (SDF-1) mRNA expression in the lung (SDF-1 (Cxcl12) mRNA; lung, compared to controls (FIG. 4A)) | kit (SCF) mRNA expression in the liver (SCF (Kit) mRNA; liver, compared to controls (FIG. 5B)) | kit (SCF) mRNA expression in the lung (SCF (Kit) mRNA; lung, compared to controls (FIG. 4B))
